For this test, the system named is S. pneumoniae ATCC 49619. In words: Minimal inhibitory concentration (MIC) by microdilution method (CLSI M7-A7). The test is classed as cell-based, Streptococcus pneumoniae. Particulars: Streptococcus pneumoniae, ATCC49619, cation-adjusted Mueller-Hinton Broth supplemented with 3% (v/v) lysed horse blood. In a few lines:
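Broth microdilution per CLSI M7-A7 in cation-adjusted Mueller-Hinton broth, supplemented with 3% (v/v) lysed horse blood for S. pneumoniae; MIC reported in mg/l.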
In general terms: In broth dilution the organism is exposed to a series of concentrations in liquid medium.

Molecules are shown by their SMILES. In brackets after ≈: the same amount, converted by molar mass.

`CCNC(=O)Nc1cc2c(-c3cc(C)nc(C)c3)ccc(C)c2cn1` [Example 44, 1-[5-(2,6-dimethyl-pyridin-4-yl)-8-methyl-isoquinolin-3-yl]-3-ethyl-urea]: the MIC (in general, the lowest concentration that inhibits growth of the organism) was determined as 4 µg/mL (≈ 12 µM).

`CCNC(=O)Nc1cc2cc(NCc3ccc(OC)nc3)cc(C)c2cn1.Cl` [Example 196, 1-ethyl-3-{6-[(6-methoxy-pyridin-3-ylmethyl)-amino]-8-methyl-isoquinolin-3-yl}-urea hydrochloride] gave an MIC of 8 µg/mL.

Consider `CCNC(=O)Nc1cc2cc(NCc3ccccc3)cc(Nc3cccnc3)c2cn1` [Example 239, 1-[6-benzylamino-8-(pyridin-3-ylamino)-isoquinolin-3-yl]-3-ethyl-urea], for which 0.5 µg/mL (≈ 1.21 µM) was the least that counted as inhibitory (MIC).

On to `CCNC(=O)Nc1cc2cccc(COc3cccnc3C)c2cn1.Cl` [Example 259, 1-ethyl-3-[8-(2-methyl-pyridin-3-yloxymethyl)-isoquinolin-3-yl]-urea hydrochloride], for which inhibition of growth (MIC) required 4 µg/mL.

`CCNC(=O)Nc1cc2c(-c3ccnc(C)c3)ccc(Nc3cccc(C(=O)N(C)C)c3)c2cn1` [Example 248, 3-[3-(3-ethyl-ureido)-5-(2-methyl-pyridin-4-yl)-isoquinolin-8-ylamino]-N,N-dimethyl-benzamide] gave an MIC of 0.5 µg/mL (≈ 1.07 µM). Compared with the last compound, the MIC is about 8-fold lower.

`CCNC(=O)Nc1cc2cccc(Nc3ccc(NC(C)=O)nc3)c2cn1.Cl` [Example 161, N-{5-[3-(3-ethyl-ureido)-isoquinolin-8-ylamino]-pyridin-2-yl}-acetamide hydrochloride] came in with an MIC of 2 µg/mL.

Regarding `CCNC(=O)Nc1cc2cc(-c3ccc4c(c3)OCO4)cc(C)c2cn1` [Example 77, 1-(6-(benzo[1,3]dioxol-5-yl)-8-methyl-isoquinolin-3-yl)-3-ethyl-urea], the MIC came to 1 µg/mL (≈ 2.86 µM).

`CCNC(=O)Nc1cc2cc(-c3cccc(S(N)(=O)=O)c3)cc(C)c2cn1` [Example 22, 3-[3-(3-ethyl-ureido)-8-methyl-isoquinolin-6-yl]-benzenesulfonamide] showed an MIC of 0.5 µg/mL (≈ 1.3 µM).

`CCNC(=O)Nc1cc2c(-c3ccccc3O)ccc(C)c2cn1` [Example 3, 1-ethyl-3-[5-(2-hydroxy-phenyl)-8-methyl-isoquinolin-3-yl]-urea] gave an MIC of 1 µg/mL (≈ 3.11 µM). Against the preceding compound, the MIC is about 2-fold higher.

As to `CCNC(=O)Nc1cc2c(CN3CCN(C)CC3)ccc(Nc3cccc(OC)n3)c2cn1` [Example 276, 1-ethyl-3-[8-(6-methoxy-pyridin-2-ylamino)-5-(4-methyl-piperazin-1-ylmethyl)-isoquinolin-3-yl]-urea], the MIC was found to be 4 µg/mL (≈ 8.9 µM).

`CCNC(=O)Nc1cc2cccc(Nc3ccc(C)cn3)c2cn1.Cl` [Example 163, 1-ethyl-3-[8-(5-methyl-pyridin-2-ylamino)-isoquinolin-3-yl]-urea hydrochloride] registered an MIC of 2 µg/mL.

For the compound `CCCNc1cc(C)c2cnc(NC(=O)NCC)cc2c1` [Example 115, 1-ethyl-3-(8-methyl-6-propylamino-isoquinolin-3-yl)-urea], the MIC is 4 µg/mL (≈ 14 µM).

Consider `CCNC(=O)Nc1cc2cc(NCc3ccccc3)cc(C)c2cn1` [Example 58, 1-(6-benzylamino-8-methyl-isoquinolin-3-yl)-3-ethyl-urea], for which the MIC came to 8 µg/mL (≈ 23.9 µM).

Take `CCNC(=O)Nc1cc2cccc(Nc3ccc(OC)nc3)c2cn1` [Example 214, 1-ethyl-3-[8-(6-methoxy-pyridin-3-ylamino)-isoquinolin-3-yl]-urea]: the minimal inhibitory concentration (MIC) came out at 16 µg/mL (≈ 47.4 µM).

`CCNC(=O)Nc1cc2cccc(Nc3ccnc(OC)c3)c2cn1` [Example 180, 1-ethyl-3-[8-(2-methoxy-pyridin-4-ylamino)-isoquinolin-3-yl]-urea] had an MIC of 4 µg/mL (≈ 11.9 µM).

In turn, `CCNC(=O)Nc1cc2cccc(Nc3ccc(OC)c(C(N)=O)c3)c2cn1` [Example 242, 5-[3-(3-ethyl-ureido)-isoquinolin-8-ylamino]-2-methoxy-benzamide] yielded an MIC of 0.5 µg/mL (≈ 1.32 µM).

Compound `CCNC(=O)Nc1cc2cc(NCc3ccc(S(=O)(=O)NC)cc3)cc(C)c2cn1` [Example 189, 4-{[3-(3-ethyl-ureido)-8-methyl-isoquinolin-6-ylamino]-methyl}-N-methyl-benzenesulfonamide] had an MIC of 8 µg/mL (≈ 18.7 µM).

In turn, `CCNC(=O)Nc1cc2cc(NC(=O)c3ccc(OC)cc3)cc(C)c2cn1` [Example 120, N-[3-(3-ethyl-ureido)-8-methyl-isoquinolin-6-yl]-4-methoxy-benzamide] yielded an MIC of 0.125 µg/mL (≈ 0.33 µM).

`CCNC(=O)Nc1cc2cc(NC(=O)c3cccnc3)cc(C)c2cn1` [Example 119, N-[3-(3-ethyl-ureido)-8-methyl-isoquinolin-6-yl]nicotinamide] came in with an MIC of 0.25 µg/mL (≈ 0.716 µM). This MIC is about 2-fold higher than that of the compound before.

For `CCNC(=O)Nc1cc2cc(-c3cncc(C)c3)cc(Nc3cccnc3)c2cn1` [Example 237, 1-ethyl-3-[6-(5-methyl-pyridin-3-yl)-8-(pyridin-3-ylamino)-isoquinolin-3-yl]-urea], the MIC was 0.25 µg/mL (≈ 0.627 µM).

On to `CCNC(=O)Nc1cc2cccc(COc3cccc(O)c3)c2cn1.Cl` [Example 213, 1-ethyl-3-[8-(3-hydroxy-phenoxymethyl)-isoquinolin-3-yl]-urea hydrochloride], for which inhibition of growth (MIC) required 4 µg/mL. This MIC lies about 16-fold higher than the previous one.

As to `CCNC(=O)Nc1cc2c(-c3ccc(CO)nc3)ccc(C)c2cn1` [Example 8, 1-ethyl-3-[5-(6-hydroxymethyl-pyridin-3-yl)-8-methyl-isoquinolin-3-yl]-urea], the MIC worked out at 4 µg/mL (≈ 11.9 µM).

As to `CCNC(=O)Nc1cc2cc(-c3cncc(SC)c3)cc(C)c2cn1` [Example 96, 1-ethyl-3-[8-methyl-6-(5-methylsulfanyl-pyridin-3-yl)-isoquinolin-3-yl]-urea], the MIC came to 2 µg/mL (≈ 5.67 µM).

In turn, `CCNC(=O)Nc1cc2c(-c3c[nH]cn3)ccc(Cl)c2cn1` [Example 288, 1-[8-chloro-5-(1H-imidazol-4-yl)-isoquinolin-3-yl]-3-ethyl-urea] registered an MIC of 2 µg/mL (≈ 6.33 µM).

With `CCNC(=O)Nc1cc2cc(-c3cccc(C(N)=O)c3)cc(C)c2cn1` [Example 31, 3-[3-(3-ethyl-ureido)-8-methyl-isoquinolin-6-yl]-benzamide], the MIC is 1 µg/mL (≈ 2.87 µM). This MIC is about 2-fold lower than that of the compound before.

`CCNC(=O)Nc1cc2c(F)c(-c3cnc4ccccc4c3)cc(C)c2cn1` [Example 143, 1-ethyl-3-[5-fluoro-8-methyl-6-(quinolin-3-yl)-isoquinolin-3-yl]-urea] gave an MIC of 0.125 µg/mL (≈ 0.334 µM).

Turning to `CCNC(=O)Nc1cc2c(-c3cccnc3)ccc(Oc3cccnc3)c2cn1` [Example 223, 1-ethyl-3-[5-pyridin-3-yl-8-(pyridin-3-yloxy)-isoquinolin-3-yl]-urea], the MIC is 0.5 µg/mL (≈ 1.3 µM).

For `CCNC(=O)Nc1cc2cccc(Nc3cccc(C(=O)NCc4ccccc4)c3)c2cn1.Cl` [Example 201, N-benzyl-3-[3-(3-ethyl-ureido)-isoquinolin-8-ylamino]-benzamide hydrochloride], inhibition of growth (MIC) required 2 µg/mL.

In the case of `CCNC(=O)Nc1cc2c(-c3ccnc(C)c3)ccc(Nc3ccc(C)nc3)c2cn1` [Example 245, 1-ethyl-3-[5-(2-methyl-pyridin-4-yl)-8-(6-methyl-pyridin-3-ylamino)-isoquinolin-3-yl]urea], the MIC was 0.5 µg/mL (≈ 1.21 µM). Compared with the last compound, the MIC is about 4-fold lower.

`CCNC(=O)Nc1cc2cc(NCc3ccc(OCC(N)=O)cc3)cc(C)c2cn1` [Example 186, 2-(4-{[3-(3-ethyl-ureido)-8-methyl-isoquinolin-6-ylamino]-methyl}-phenoxy)-acetamide] came in with an MIC of 8 µg/mL (≈ 19.6 µM).

`CCNC(=O)Nc1cc2c(-c3ccc4nccn4c3)ccc(C)c2cn1` [Example 7, 1-ethyl-3-(5-imidazo[1,2-a]pyridin-6-yl-8-methyl-isoquinolin-3-yl)-urea] returned an MIC of 4 µg/mL (≈ 11.6 µM).

Take `CCNC(=O)Nc1cc2c(F)c(NCc3ccccc3)cc(Cl)c2cn1` [Example 49, 1-(6-benzylamino-8-chloro-5-fluoro-isoquinolin-3-yl)-3-ethyl-urea]: inhibition of growth (MIC) required 2 µg/mL (≈ 5.36 µM).

The compound `CCNC(=O)Nc1cc2cccc(Nc3ccc(CC(=O)NC)cc3)c2cn1.Cl` [Example 207, 2-{4-[3-(3-ethyl-ureido)-isoquinolin-8-ylamino]phenyl}-N-methyl-acetamide hydrochloride] registered an MIC of 2 µg/mL.

In turn, `CCNC(=O)Nc1cc2cccc(Nc3ncccc3C)c2cn1.Cl` [Example 167, 1-ethyl-3-[8-(3-methyl-pyridin-2-ylamino)-isoquinolin-3-yl]-urea hydrochloride] yielded an MIC of 8 µg/mL. Against the preceding compound, the MIC is about 4-fold higher.

`CCNC(=O)Nc1cc2cc(-c3cccc4[nH]ccc34)cc(C)c2cn1` [Example 90, 1-ethyl-3-[6-(1H-indol-4-yl)-8-methyl-isoquinolin-3-yl]-urea] yielded an MIC of 2 µg/mL (≈ 5.81 µM).

Regarding `CCNC(=O)Nc1cc2cc(NCc3ccncc3)cc(C)c2cn1.Cl` [Example 122, 1-ethyl-3-{8-methyl-6-[(pyridin-4-ylmethyl)-amino]-isoquinolin-3-yl}-urea hydrochloride], the MIC came to 8 µg/mL. This MIC lies about 4-fold higher than the previous one.

`CCNC(=O)Nc1cc2c(CNC)ccc(Nc3cccnc3)c2cn1` [Example 270, 1-ethyl-3-{5-[(methylamino)methyl]-8-(pyridin-3-ylamino)-isoquinolin-3-yl}-urea] returned an MIC of 4 µg/mL (≈ 11.4 µM). This MIC lies about 2-fold lower than the previous one.

Take `CCNC(=O)Nc1cc2c(-c3ccnc(OC)c3)ccc(C)c2cn1` [Example 42, 1-ethyl-3-[5-(2-methoxy-pyridin-4-yl)-8-methyl-isoquinolin-3-yl]-urea]: the MIC was found to be 2 µg/mL (≈ 5.95 µM).

`CCNC(=O)Nc1cc2cc(-c3ccc(S(N)(=O)=O)cc3)cc(C)c2cn1` [Example 38, 4-[3-(3-ethyl-ureido)-8-methyl-isoquinolin-6-yl]-benzenesulfonamide] displayed an MIC of 1 µg/mL (≈ 2.6 µM).

`CCNC(=O)Nc1cc2c(-c3ccc(O)cc3)ccc(C)c2cn1` [Example 2, 1-ethyl-3-[5-(4-hydroxy-phenyl)-8-methyl-isoquinolin-3-yl]-urea]: 2 µg/mL (≈ 6.22 µM) was the least that counted as inhibitory (MIC).

In the case of `CCNC(=O)Nc1cc2c(-c3ccnc(C)c3)ccc(Nc3cccnc3)c2cn1` [Example 229, 1-ethyl-3-[5-(2-methyl-pyridin-4-yl)-8-(pyridin-3-ylamino)-isoquinolin-3-yl]-urea], the MIC worked out at 0.25 µg/mL (≈ 0.627 µM).

For the compound `CCNC(=O)Nc1cc2cccc(CNc3cccnc3)c2cn1` [Example 190, 1-ethyl-3-[8-(pyridin-3-ylaminomethyl)-isoquinolin-3-yl]-urea], the MIC worked out at 1 µg/mL (≈ 3.11 µM). This MIC is about 4-fold higher than that of the compound before.
